Assay results: the supplement of paper PMC10307832

Experiments:
Assay in all cases: relative viability (nuclei count vs DMSO), 5 days (fraction); higher = more cells survive
[1] = compound: CO[C@H]1C[C@@H]2CC[C@@H](C)[C@@](O)(O2)C(=O)C(=O)N2CCCC[C@H]2C(=O)O[C@H]([C@H](C)C[C@@H]2CC[C@@H](OCCO)[C@H](OC)C2)CC(=O)[C@H](C)/C=C(\C)[C@@H](O)[C@@H](OC)C(=O)[C@H](C)C[C@H](C)/C=C/C=C/C=C/1C [Everolimus] + CCNC(=O)c1noc(-c2cc(C(C)C)c(O)cc2O)c1-c1ccc(CN2CCOCC2)cc1 [Luminespib] (partner 0.01 µM)
How it was run: (§1)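 Five library-drug doses in √10 steps were combined with a fixed anchor-drug dose, or a single drug was given alone, by pin tool to lung cancer cell lines in 1536-well plates the day after seeding. Nuclei were stained and counted after 5 days. Relative viability is the nuclei count in treated wells over that in vehicle wells, taken as the median of duplicate plates.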

[2] = compound: CO[C@H]1C[C@@H]2CC[C@@H](C)[C@@](O)(O2)C(=O)C(=O)N2CCCC[C@H]2C(=O)O[C@H]([C@H](C)C[C@@H]2CC[C@@H](OCCO)[C@H](OC)C2)CC(=O)[C@H](C)/C=C(\C)[C@@H](O)[C@@H](OC)C(=O)[C@H](C)C[C@H](C)/C=C/C=C/C=C/1C [Everolimus] + Cc1nc(Nc2ncc(C(=O)Nc3c(C)cccc3Cl)s2)cc(N2CCN(CCO)CC2)n1 [Dasatinib] (partner 0.075 µM)
How it was run: as §1

[3] = compound: CO[C@H]1C[C@@H]2CC[C@@H](C)[C@@](O)(O2)C(=O)C(=O)N2CCCC[C@H]2C(=O)O[C@H]([C@H](C)C[C@@H]2CC[C@@H](OCCO)[C@H](OC)C2)CC(=O)[C@H](C)/C=C(\C)[C@@H](O)[C@@H](OC)C(=O)[C@H](C)C[C@H](C)/C=C/C=C/C=C/1C [Everolimus] + N=C(N)NC(=N)NCCc1ccccc1 [Phenformin] (partner 250 µM)
How it was run: as §1

[4] = compound: CO[C@H]1C[C@@H]2CC[C@@H](C)[C@@](O)(O2)C(=O)C(=O)N2CCCC[C@H]2C(=O)O[C@H]([C@H](C)C[C@@H]2CC[C@@H](OCCO)[C@H](OC)C2)CC(=O)[C@H](C)/C=C(\C)[C@@H](O)[C@@H](OC)C(=O)[C@H](C)C[C@H](C)/C=C/C=C/C=C/1C [Everolimus] + COc1cccc2cc(-c3nc([C@H]4CC[C@H](C(=O)O)CC4)n4ncnc(N)c34)[nH]c12 [OSI-027] (partner 0.5 µM)
How it was run: as §1

[5] = compound: CO[C@H]1C[C@@H]2CC[C@@H](C)[C@@](O)(O2)C(=O)C(=O)N2CCCC[C@H]2C(=O)O[C@H]([C@H](C)C[C@@H]2CC[C@@H](OCCO)[C@H](OC)C2)CC(=O)[C@H](C)/C=C(\C)[C@@H](O)[C@@H](OC)C(=O)[C@H](C)C[C@H](C)/C=C/C=C/C=C/1C [Everolimus] + COc1cc2c(Oc3ccc(NC(=O)C4(C(=O)Nc5ccc(F)cc5)CC4)cc3F)ccnc2cc1OCCCN1CCOCC1 [Foretinib] (partner 0.25 µM)
How it was run: as §1

[6] = compound: CO[C@H]1C[C@@H]2CC[C@@H](C)[C@@](O)(O2)C(=O)C(=O)N2CCCC[C@H]2C(=O)O[C@H]([C@H](C)C[C@@H]2CC[C@@H](OCCO)[C@H](OC)C2)CC(=O)[C@H](C)/C=C(\C)[C@@H](O)[C@@H](OC)C(=O)[C@H](C)C[C@H](C)/C=C/C=C/C=C/1C [Everolimus] + Cc1cc(Nc2cc(N3CCN(C)CC3)nc(Sc3ccc(NC(=O)C4CC4)cc3)n2)n[nH]1 [Tozasertib] (partner 0.1 µM)
How it was run: as §1

[7] = compound: CO[C@H]1C[C@@H]2CC[C@@H](C)[C@@](O)(O2)C(=O)C(=O)N2CCCC[C@H]2C(=O)O[C@H]([C@H](C)C[C@@H]2CC[C@@H](OCCO)[C@H](OC)C2)CC(=O)[C@H](C)/C=C(\C)[C@@H](O)[C@@H](OC)C(=O)[C@H](C)C[C@H](C)/C=C/C=C/C=C/1C [Everolimus]
How it was run: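 Following overnight incubation at 37 °C, lung cancer cell lines in 1536-well plates were pinned with five library-drug doses (not always all listed) in √10 steps on vehicle-anchored plates. The cells then spent 5 days without medium change before a combined fix, permeabilisation and Hoechst stain, 4× imaging and MetaXpress nuclear counts. Viability is the treated-to-vehicle ratio of nuclei, taken as the median across plates. Only plates with control CV below 25% and at least one doubling passed.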

Question: NCI-H1623 was tested. Which relative viability ([1]; first compound 0.01 µM) did it give?
Answer: 0.467

Question: What about the relative viability ([1]; first compound 0.03162 µM) of the same cell line?
Answer: 0.336

Question: And the relative viability ([1]; first compound 0.1 µM)?
Answer: 0.307

Question: And the relative viability ([1]; first compound 0.3162 µM)?
Answer: 0.326

Question: And the relative viability ([1]; first compound 1 µM)?
Answer: 0.296

Question: What about the relative viability ([2]; first compound 0.01 µM) of the same cell line?
Answer: 0.388

Question: And the relative viability ([2]; first compound 0.03162 µM)?
Answer: 0.566

Question: And the relative viability ([2]; first compound 0.1 µM)?
Answer: 0.317

Question: And the relative viability ([2]; first compound 0.3162 µM)?
Answer: 0.352

Question: What about the relative viability ([2]; first compound 1 µM) of the same cell line?
Answer: 0.382

Question: And the relative viability ([3]; first compound 0.01 µM)?
Answer: 0.466

Question: What about the relative viability ([3]; first compound 0.03162 µM) of the same cell line?
Answer: 0.622

Question: And the relative viability ([3]; first compound 0.1 µM)?
Answer: 0.444

Question: What about the relative viability ([3]; first compound 0.3162 µM) of the same cell line?
Answer: 0.444

Question: What about the relative viability ([3]; first compound 1 µM) of the same cell line?
Answer: 0.512

Question: What about the relative viability ([4]; first compound 0.01 µM) of the same cell line?
Answer: 0.408

Question: What about the relative viability ([4]; first compound 0.03162 µM) of the same cell line?
Answer: 0.395

Question: What about the relative viability ([4]; first compound 0.1 µM) of the same cell line?
Answer: 0.362

Question: And the relative viability ([4]; first compound 0.3162 µM)?
Answer: 0.384

Question: And the relative viability ([4]; first compound 1 µM)?
Answer: 0.372

Question: What about the relative viability ([5]; first compound 0.01 µM) of the same cell line?
Answer: 0.721

Question: And the relative viability ([5]; first compound 0.03162 µM)?
Answer: 0.831

Question: What about the relative viability ([5]; first compound 0.1 µM) of the same cell line?
Answer: 0.53

Question: What about the relative viability ([5]; first compound 0.3162 µM) of the same cell line?
Answer: 0.511

Question: And the relative viability ([5]; first compound 1 µM)?
Answer: 0.563

Question: What about the relative viability ([6]; first compound 0.01 µM) of the same cell line?
Answer: 0.411

Question: And the relative viability ([6]; first compound 0.03162 µM)?
Answer: 0.396

Question: And the relative viability ([6]; first compound 0.1 µM)?
Answer: 0.39

Question: What about the relative viability ([6]; first compound 0.3162 µM) of the same cell line?
Answer: 0.381

Question: What about the relative viability ([6]; first compound 1 µM) of the same cell line?
Answer: 0.385

Question: And the relative viability ([7]; 0.01 µM)?
Answer: 0.773

Question: What about the relative viability ([7]; 0.03162 µM) of the same cell line?
Answer: 0.622

Question: And the relative viability ([7]; 0.1 µM)?
Answer: 0.595

Question: What about the relative viability ([7]; 0.3162 µM) of the same cell line?
Answer: 0.581

Question: What about the relative viability ([7]; 1 µM) of the same cell line?
Answer: 0.514
